Results on 3 compounds are retold here after patent publication US20240383892A1, “PARTICLES OF IMIDAZO[4,5-b]PYRIDINE COMPOUND, PHARMACEUTICAL COMPOSITIONS, AND THEIR USE IN TREATING MEDICAL CONDITIONS” (Centrexion Therapeutics Corporation, priority 2023, published 2024).

Common to all, as to assay type: physicochemical
The nature of series [1]: Particle size analysis, Malvern Mastersizer 2000. The settings on record: dispersant 0.2% (w/v) Igepal in RO water. On the procedure:
Particle size analysis was performed on the particles using a Malvern Mastersizer 2000 particle size analyzer equipped with a Hydro2000S sample dispersion unit. Instrument parameters and experimental conditions are set forth below:
A 50 mg±5 mg of sample of particles was weighed and placed in a 20 mL plastic blood dilution vial. Five drops of dispersant (0.2% (w/v) Igepal in RO water) was added to the vial and mixed to a slurry using the flat end of a spatula. Dispersant (20 mL) was then added and stirred with a spatula to begin dispersion. The sample vial was placed onto a magnetic stir plate and stirred for 5 minutes. While stirring, we withdrew an aliquot of the dispersed sample using a transfer pipet and transferred it to the Hydro2000S until an obscuration of 10-30% was obtained. The sample was allowed to recirculate for 5 minutes at 2500 RPM prior to initiating the sample measurement.

Series [2] is described as follows: Stability comparison of crystalline forms: temperature of dehydration. The source says:
Stability of crystalline 3-(3-methoxy-4-((4-methoxybenzyl)oxy)benzyl)-6-(1-methyl-1H-pyrazol-4-yl)-3H-imidazo[4,5-b]pyridin-2-amine monohydrate Form 3 was compared to crystalline 3-(3-methoxy-4-((4-methoxybenzyl)oxy)benzyl)-6-(1-methyl-1H-pyrazol-4-yl)-3H-imidazo[4,5-b]pyridin-2-amine monohydrate Form 1. The physical property analyzed was temperature of dehydration. Crystalline 3-(3-methoxy-4-((4-methoxybenzyl)oxy)benzyl)-6-(1-methyl-1H-pyrazol-4-yl)-3H-imidazo[4,5-b]pyridin-2-amine monohydrate Form 1 is that described in international patent application publication WO 2016/100677.

Series [3] in a line: Dynamic vapor sorption (hygroscopicity). The settings on record: 2 cycles of increasing and decreasing relative humidity at 25° C., FIG. 3. On the procedure:
A dynamic vapor sorption isotherm plot of crystalline 3-(3-methoxy-4-((4-methoxybenzyl)oxy)benzyl)-6-(1-methyl-1H-pyrazol-4-yl)-3H-imidazo[4,5-b]pyridin-2-amine monohydrate Form 3 is provided in FIG. 3. The dynamic vapor sorption isotherm plot results are from the procedure where after a drying stage at 0% relative humidity, compound sample was exposed to 2 cycles of increasing and decreasing relative humidity at 25° C., with steps of 5% relative humidity, where mass of the sample was recorded throughout the experiment.

The structures appear in SMILES notation.

As for `COc1ccc(COc2ccc(Cn3c(N)nc4cc(-c5cnn(C)c5)cnc43)cc2OC)cc1` [Particles Prepared in Part I, 3-(3-methoxy-4-((4-methoxybenzyl)oxy)benzyl)-6-(1-methyl-1H-pyrazol-4-yl)-3H-imidazo[4,5-b]pyridin-2-amine monohydrate], in series [1], the Particle Size Parameter D10 was found to be 18.6 µm, the Particle Size Parameter D50 turned out to be 56.5 µm and the Particle Size Parameter D90 came out at 131 µm.

With `COc1ccc(COc2ccc(Cn3c(N)nc4cc(-c5cnn(C)c5)cnc43)cc2OC)cc1` [Form 1, 3-(3-methoxy-4-((4-methoxybenzyl)oxy)benzyl)-6-(1-methyl-1H-pyrazol-4-yl)-3H-imidazo[4,5-b]pyridin-2-amine monohydrate], the temperature of dehydration entry in series [2] (under a stream of nitrogen gas) was “room temperature”.

`COc1ccc(COc2ccc(Cn3c(N)nc4cc(-c5cnn(C)c5)cnc43)cc2OC)cc1` [Form 3, 3-(3-methoxy-4-((4-methoxybenzyl)oxy)benzyl)-6-(1-methyl-1H-pyrazol-4-yl)-3H-imidazo[4,5-b]pyridin-2-amine monohydrate] gave a temperature of dehydration in series [2] (heated) of 130 °C. Also, the “hygroscopicity (dynamic vapor sorption isotherm)” value in series [3] is reported as “not hygroscopic”.
